According to PMC6128917, “Implications for the impairment of the rapid channel closing of Proteomonas sulcata anion channelrhodopsin 1 at high Cl^− concentrations” (Scientific Reports, 2018):

Target: T1, PsuACR1 (PsACR1)
T1 construct: 291 residues plus C-terminal His8 kept (299 residues in total)
Assay: UV-visible absorption titration, λmax red-shift fitted with Hill equation (n = […] fixed)
Assay type: binding, Proteomonas sulcata
Conditions: 10 mM MOPS pH 7.0, 25 °C; ionic strength kept at 1,000 mM with Na2SO4; initial (unphotolysed) state

Cl [Cl^−]
Kd: 5.5 ± 1.6 mM
